{"source": "ChEMBL document CHEMBL6182924", "about": "“Discovery of a Novel and Potent MET Transcription Inhibitor Targeting Promoter G-Quadruplex for the Treatment of NSCLC” (J Med Chem, 2025)", "key": {"[1]": {"system": "A549", "experiment": "Induction of cell cycle arrest in human A549 cells assessed as accumulation of cells at G2 phase at 0.5 uM measured for 24 hrs by PI/Rnase staining based flow cytometry (reference value: 13.4 %)", "format": "functional"}, "[2]": {"system": "A549", "experiment": "Antiproliferative activity against human A549 cells incubated for 3 days by CCK-8 assay", "format": "functional, cell-based", "details": "A549, 72 h"}, "[3]": {"system": "A549", "experiment": "Downregulation of c-Met expression in human A549 cells incubated for 72 hrs by Western blot analysis", "format": "functional, cell-based", "details": "dose <= 1000.0 nM"}, "[4]": {"system": "A549", "experiment": "Downregulation of c-Met expression in human A549 cells at 1 uM by Western blot analysis", "format": "functional, cell-based", "details": "time <= 72.0 hrs"}, "[5]": {"system": "NCI-H1975", "experiment": "Downregulation of c-Met mRNA expression in human NCI-H1975 cells at 0.5 to 1 uM incubated for 24 hrs by qRT-PCR analysis", "format": "functional, cell-based", "details": "dose 0.5-1 µM"}, "[6]": {"system": "A549", "experiment": "Downregulation of c-Met mRNA expression in human A549 cells at 0.5 to 1 uM incubated for 24 hrs by qRT-PCR analysis", "format": "functional, cell-based", "details": "dose 0.5-1 µM"}, "[7]": {"system": "A549", "experiment": "Induction of cell cycle arrest in human A549 cells assessed as accumulation of cells at G1 phase at 2 uM measured for 24 hrs by PI/Rnase staining based flow cytometry (reference value: 75.2 %)", "format": "functional"}, "[8]": {"system": "NCI-H1975", "experiment": "Induction of cell cycle arrest in human NCI-H1975 cells assessed as accumulation of cells at G2 phase at 0.5 uM measured for 24 hrs by PI/Rnase staining based flow cytometry (reference value: 14.8 %)", "format": "functional"}, "[9]": {"system": "NCI-H1975", "experiment": "Induction of cell cycle arrest in human NCI-H1975 cells assessed as accumulation of cells at G1 phase at 1 uM measured for 24 hrs by PI/Rnase staining based flow cytometry (reference value: 79.2 %)", "format": "functional"}, "[10]": {"system": "NCI-H1975", "experiment": "Induction of cell cycle arrest in human NCI-H1975 cells assessed as accumulation of cells at G2 phase at 1 uM measured for 24 hrs by PI/Rnase staining based flow cytometry (reference value: 14.8 %)", "format": "functional"}, "[11]": {"system": "NCI-H1975", "experiment": "Induction of cell cycle arrest in human NCI-H1975 cells assessed as accumulation of cells at G2 phase at 2 uM measured for 24 hrs by PI/Rnase staining based flow cytometry (reference value: 14.8 %)", "format": "functional"}, "[12]": {"system": "A549", "experiment": "Induction of apoptosis in human A549 cells assessed as late apoptotic cells at 0.5 uM incubated for 24 hrs by Annexin V-FITC/PI staining based flow cytometry analysis (reference value: 2.56 %)", "format": "functional"}, "[13]": {"system": "A549", "experiment": "Induction of apoptosis in human A549 cells assessed as necrotic cells at 0.5 uM incubated for 24 hrs by Annexin V-FITC/PI staining based flow cytometry analysis (reference value: 4.37 %)", "format": "functional"}, "[14]": {"system": "A549", "experiment": "Induction of apoptosis in human A549 cells assessed as necrotic cells at 1 uM incubated for 24 hrs by Annexin V-FITC/PI staining based flow cytometry analysis (reference value: 4.37 %)", "format": "functional"}, "[15]": {"system": "A549", "experiment": "Induction of apoptosis in human A549 cells assessed as early apoptotic cells at 2 uM incubated for 24 hrs by Annexin V-FITC/PI staining based flow cytometry analysis (reference value: 1.73 %)", "format": "functional"}, "[16]": {"system": "NCI-H1975", "experiment": "Induction of apoptosis in human NCI-H1975 cells assessed as early apoptotic cells at 1 uM incubated for 24 hrs by Annexin V-FITC/PI staining based flow cytometry analysis (reference value: 0.35 %)", "format": "functional"}, "[17]": {"system": "NCI-H1975", "experiment": "Induction of apoptosis in human NCI-H1975 cells assessed as late apoptotic cells at 1 uM incubated for 24 hrs by Annexin V-FITC/PI staining based flow cytometry analysis (reference value: 2.27 %)", "format": "functional"}, "[18]": {"system": "NCI-H1975", "experiment": "Induction of apoptosis in human NCI-H1975 cells assessed as viable cells at 2 uM incubated for 24 hrs by Annexin V-FITC/PI staining based flow cytometry analysis (reference value: 90.1 %)", "format": "functional", "details": "read-out: Activity"}, "[19]": {"system": "NCI-H1975", "experiment": "Induction of apoptosis in human NCI-H1975 cells assessed as early apoptotic cells at 2 uM incubated for 24 hrs by Annexin V-FITC/PI staining based flow cytometry analysis (reference value: 0.35 %)", "format": "functional"}, "[20]": {"system": "NCI-H1975", "experiment": "Induction of apoptosis in human NCI-H1975 cells assessed as necrotic cells at 2 uM incubated for 24 hrs by Annexin V-FITC/PI staining based flow cytometry analysis (reference value: 7.33 %)", "format": "functional"}, "[21]": {"system": "A549", "experiment": "Antiproliferative activity against human A549 cells assessed as inhibition of cell growth incubated for 3 days by CCK-8 assay", "format": "functional, cell-based", "details": "time 3.0 day"}, "[22]": {"system": "A549", "experiment": "Inhibition of colony formation in human A549 cells incubated for 2 weeks by crystal violet staining based analysis", "format": "functional, cell-based", "details": "dose 0.5-2 µM"}, "[23]": {"system": "NCI-H1975", "experiment": "Inhibition of cell migration in human NCI-H1975 cells incubated for 12 hrs by crystal violet staining based analysis", "format": "functional", "details": "dose 0.5-2 µM"}, "[24]": {"system": "A549", "experiment": "Antiproliferative activity against MET knockdown human A549 cells assessed as inhibition of cell growth by CCK-8 assay", "format": "functional, cell-based"}, "[25]": {"system": "A549", "experiment": "Antitumor activity against human A549 cells xenografted in BALB/c mouse assessed as tumor growth inhibition at 20 mg/kg, po administered once a day and measured up to 24 days", "format": "functional", "details": "A549, 576 h, time <= 24 day, read-out: TGI"}, "[26]": {"system": "A549", "experiment": "Antitumor activity against human A549 cells xenografted in BALB/c mouse assessed as downregulation of c-MET expression in tumor at 20 mg/kg, po administered once a day and measured for 20 days by Western blot analysis", "format": "functional, organism-based", "details": "time 20.0 day"}, "[27]": {"experiment": "Toxicity in BALB/c mouse xenografted with human A549 cells assessed as heart damage at 20 mg/kg, po administered once a day and measured after 20 days by H and E staining based analysis", "format": "organism-based", "details": "in vivo, 480 h, time 20 day"}, "[28]": {"experiment": "Toxicity in BALB/c mouse xenografted with human A549 cells assessed as liver damage at 20 mg/kg, po administered once a day and measured after 20 days by H and E staining based analysis", "format": "organism-based", "details": "in vivo, 480 h, time 20 day"}, "[29]": {"experiment": "Toxicity in BALB/c mouse xenografted with human A549 cells assessed as spleen damage at 20 mg/kg, po administered once a day and measured after 20 days by H and E staining based analysis", "format": "organism-based", "details": "in vivo, 480 h, time 20 day"}, "[30]": {"experiment": "Toxicity in BALB/c mouse xenografted with human A549 cells assessed as kidney damage at 40 mg/kg, po administered once a day and measured after 20 days by H and E staining based analysis", "format": "organism-based", "details": "in vivo, 480 h, time 20 day"}, "[31]": {"experiment": "Acute toxicity in Sprague-Dawley rat assessed as liver damage at 500 to 2000 mg/kg, po measured every 2 days by H and E staining based analysis", "format": "organism-based", "details": "in vivo, 48 h, dose 500-2000 mg/kg, time 2 day"}, "[32]": {"experiment": "Acute toxicity in Sprague-Dawley rat assessed as lung damage at 500 to 2000 mg/kg, po measured every 2 days by H and E staining based analysis", "format": "organism-based", "details": "in vivo, 48 h, dose 500-2000 mg/kg, time 2 day"}, "[33]": {"experiment": "Acute toxicity in Sprague-Dawley rat assessed as kidney damage at 500 to 2000 mg/kg, po measured every 2 days by H and E staining based analysis", "format": "organism-based", "details": "in vivo, 48 h, dose 500-2000 mg/kg, time 2 day"}, "[34]": {"system": "BaF3", "experiment": "Antiproliferative activity against mouse BaF3 cells harboring TPR-MET D1228N mutant incubated for 24 hrs by CCK-8 assay", "format": "functional, cell-based", "details": "BaF3, 24 h"}}, "note": "Activity calls are given as the source filed them. The calls are words filed in the database; no cut-off is given here."}
{"smiles": "COc1cccc(-c2ccc(-c3nc4c5cccnc5c5ncccc5c4[nH]3)o2)c1", "values": [{"measurement": "Activity", "setting": "[1]", "result": 14.6, "unit": "%"}, {"measurement": "IC50", "setting": "[2]", "result": 0.43, "unit": "µM"}, {"measurement": "Activity", "setting": "[3]", "result": "Dose-dependent-effect"}, {"measurement": "Activity", "setting": "[4]", "result": "Time-dependent-effect"}, {"measurement": "Activity", "setting": "[5]", "result": "Active"}, {"measurement": "Activity", "setting": "[6]", "result": "Active"}, {"measurement": "Activity", "setting": "[7]", "result": 83.9, "unit": "%"}, {"measurement": "Activity", "setting": "[8]", "result": 13, "unit": "%"}, {"measurement": "Activity", "setting": "[9]", "result": 82.1, "unit": "%"}, {"measurement": "Activity", "setting": "[10]", "result": 11.5, "unit": "%"}, {"measurement": "Activity", "setting": "[11]", "result": 11, "unit": "%"}, {"measurement": "Activity", "setting": "[12]", "result": 7.9, "unit": "%"}, {"measurement": "Activity", "setting": "[13]", "result": 3.79, "unit": "%"}, {"measurement": "Activity", "setting": "[14]", "result": 8.81, "unit": "%"}, {"measurement": "Activity", "setting": "[15]", "result": 12.2, "unit": "%"}, {"measurement": "Activity", "setting": "[16]", "result": 2.2, "unit": "%"}, {"measurement": "Activity", "setting": "[17]", "result": 10.1, "unit": "%"}, {"measurement": "viability at 2 µM", "setting": "[18]", "result": 79.7, "unit": "%"}, {"measurement": "Activity", "setting": "[19]", "result": 2.21, "unit": "%"}, {"measurement": "Activity", "setting": "[20]", "result": 3.94, "unit": "%"}, {"measurement": "Activity", "setting": "[21]", "result": "Active"}, {"measurement": "inhibition", "setting": "[22]", "result": "Dose-dependent-effect"}, {"measurement": "inhibition", "setting": "[23]", "result": "Dose-dependent-effect"}, {"measurement": "Activity", "setting": "[24]", "result": "Active"}, {"measurement": "inhibition in vivo at 20 mg/kg", "setting": "[25]", "result": 43, "unit": "%"}, {"measurement": "Activity", "setting": "[26]", "result": "Active"}, {"measurement": "Activity", "setting": "[27]", "result": "Non-toxic"}, {"measurement": "Activity", "setting": "[28]", "result": "Non-toxic"}, {"measurement": "Activity", "setting": "[29]", "result": "Non-toxic"}, {"measurement": "Activity", "setting": "[30]", "result": "Non-toxic"}, {"measurement": "Activity", "setting": "[31]", "result": "Non-toxic"}, {"measurement": "Activity", "setting": "[32]", "result": "Non-toxic"}, {"measurement": "Activity", "setting": "[33]", "result": "Non-toxic"}, {"measurement": "IC50", "setting": "[34]", "result": 0.4, "unit": "µM"}]}
